Columns and labels:
[1] = Oxygen radical absorbance capacity (ORAC) assay, fluorescein probe with AAPH, Trolox standard; conditions: individual antioxidant compound
Experimental: (§1) Synergism was determined by comparing the antioxidant capacities of combinations of components measured by ORAC and HORAC, with expected or additive values of the individual compounds. The […], measure two different antioxidant properties, radical chain breaking and prevention of radical formation. The ORAC and HORAC assays are both fluorometric assays that use hydrogen atom transfer chemistry to detect oxidation of a fluorescent probe. In the ORAC assay, a free radical initiator is used to produce peroxyl radical probes, while in the HORAC assay, a hydroxyl radical initiator and fenton reagent are used to produce hydroxyl radical probes.
(§2) As reflected in the Examples below, the expected ORAC/HORAC is the combined (additive) antioxidant capacity of each individual antioxidant compound in the association, measured individually and assuming that each is functioning independently. The expected ORAC or HORAC value of a certain association can be calculated by using the following equation: ORAC or HORAC (total)=sum of ORAC or HORAC (compound n, individually) multiplied by the Percentage (compound n, of use in a cosmetic composition), n=1, 2, 3 . . . .
The ORAC assay is one of most commonly used methods to evaluate the capacity of antioxidants against ROS (reactive oxygen species), specific for peroxyl which is one of the most important free radicals present in the human skin environment. […] Azo-initiators are considered to produce the peroxyl radical by heating, which damages the fluorescent molecule, resulting in the loss of fluorescence. […] By quantifying the decay of fluorescence using a fluorometer, the degree of protection is determined comparing with a standard control antioxidant Trolox. […] Equipment that can automatically measure and calculate the capacity is commercially available, such as the VarioSkan flash microplate reader from Thermo Scientific.
References disclosing ORAC assays include: Cao G, Alessio H, Cutler R (1993). “Oxygen-radical absorbance capacity assay for antioxidants”. […]

[2] = Hydroxyl oxygen radical absorbance capacity (HORAC) assay, fluorescent probe with hydrogen peroxide and Cobalt(II) fluoride, Gallic acid standard; conditions: individual antioxidant compound
Experimental: as §1, §2
Similar to the ORAC assay, the HORAC assay is an in tubo assay designed to quantify the capacity of an antioxidant to avert the hydroxyl radical or anti-Fenton reaction. The hydroxyl radical, generated from hydrogen peroxide and Cobalt(II) fluoride (Fenton reaction), will quench a fluorescent probe by a hydrogen atom transfer reaction. Certain antioxidants can chelate the Co(II), preventing the generation of the hydroxyl radical and initially block or prevent the quenching of the probe. By quantifying the decay of fluorescence using a fluorometer, the degree of protection is determined comparing with a standard control antioxidant Gallic acid. The result is expressed in μMol equivalent of Gallic acid. Equipment that can automatically measure and calculate the capacity is commercially available, such as the VarioSkan flash microplate reader from Thermo Scientific. […]

Compound	ORAC [1] [μmolTolox/g]	HORAC [2]
O=C1O[C@H]([C@@H](O)CO)C(O)=C1O [Vitamin C, ascorbic acid]	4456	No activity
COc1cc(/C=C/C(=O)O)ccc1O [ferulic acid]	14272	9868 μmolGAE/g
O=C(O)[C@H]1O[C@@H](Oc2cc3oc(-c4ccccc4)cc(=O)c3c(O)c2O)[C@H](O)[C@@H](O)[C@@H]1O [baicalin]	4759	2592 μmolGAE/g

Reference: patent publication US10898420B2, “Compositions containing phenolic compounds having synergistic antioxidant benefits” (L'OREAL, priority 2016, dated 2021)
